Assay: in vitro
Details: human, hela cells, % viability

Row | SMILES | viability at 28.5 h, 10 µM
1 | Cc1ncsc1CCOc1nc2cc(Cl)c(Cl)cc2nc1NC(C)C [CBK115744] | 88.6%
2 | Cc1sc2ncn(CC3(O)CCCNC3)c(=O)c2c1-c1ccc(F)cc1 (stereo not shown) [CBK307346] | 96%
3 | Cc1ccc(C(=O)N2Cc3ccccc3C2)cn1 [CBK200318] | 94.9%
4 | CC1CCc2nc(NC(=O)Cn3cccc(C(=O)Nc4ccc(F)cc4)c3=O)sc2C1 (stereo not shown) [CBK286063] | 95.5%
5 | CCOc1ncccc1C(=O)NCc1ccc(COCC(F)(F)F)cc1 [CBK304526] | 97.8%
6 | COc1ccc2nc(N3CCc4ccccc4C3)sc2c1 [CBK287493] | 102%
7 | O=C(NCc1cccs1)c1cc(S(=O)(=O)N2CCOCC2)c(Cl)cc1Cl [CBK269657] | 97.3%
8 | Nc1cc2cccnc2c(-c2ccc3c(c2)CCO3)n1 [CBK081173] | 98%
9 | CC(C)C(=O)N1CCC(c2[nH]ncc2-c2ccncc2)CC1 [CBK284237] | 79.6%
10 | N#CCCCN1CCCN(c2cc(OCC3COc4ccccc4O3)ncn2)CC1 (stereo not shown) [CBK083391T] | 85.8%
11 | O=C(Nc1cccc(N2CCNCC2)c1)c1cnccn1 [CBK029470T] | 90.3%
12 | Fc1ccc(C2(CCCN3CCN(c4ccncc4)CC3)OCCO2)cc1 [CBK038887] | 111%
13 | COc1cccc(CN2CCC3(CC2)c2[nH]c4ccc(OCc5ccccc5)cc4c2CCN3C=O)c1 [CBK040462] | 101%
14 | Cc1ccc(Cn2nc(NC(=O)c3cccn3C)c3ccccc32)cc1 [CBK048214] | 97.4%
15 | NC1(C(F)(F)F)Oc2cc(Cl)c(Cl)cc2O1 [CBK021805] | 88.5%
16 | Cc1ccc(S(=O)(=O)NCCSc2nnc(N)s2)cc1 [CBK266300] | 97.9%
17 | CCOc1ccccc1CNc1ccc(C2c3ccsc3CCN2C(=O)COC)cc1 (stereo not shown) [CBK286461] | 88.5%
18 | O=C(O)c1cccc(NS(=O)(=O)c2ccccc2)c1 [CBK155710] | 79.7%
19 | O=C(O)c1ccc2c(c1)C(=O)N(CCCN1CCOCC1)C2=O [CBK269245] | 102%
20 | CCNC(=O)N1CC[C@H]2CC(=O)N(Cc3cccnc3)CC[C@H]2C1 [CBK288792] | 85.6%
21 | O=C(N[C@H]1CCN2C(=O)c3cc(-c4ccccc4)ccc3NC(=O)[C@H]12)c1cccs1 [CBK289350] | 85.9%
22 | Cc1cc(C(=O)CSc2ccc(Cl)nn2)c(C)n1C1CC1 [CBK305512] | 99.2%
23 | CN1CCN(C(=O)CCn2c(C(F)F)cc3cccnc32)CC1 [CBK285023] | 101%

Row | SMILES | viability at 28.5 h, 10 µM
24 | Cc1ccc(NC(=O)c2ccc3ccccc3n2)c(C)n1 [CBK200293] | 83.2%
25 | CC1=CC(=O)Nc2ccccc2S1 [CBK028872] | 118%
26 | COc1ccc(CCN2C(=O)/C(=C\c3c(NCCO)nc4c(C)cccn4c3=O)SC2=S)cc1 [CBK265566] | 79.9%
27 | COCCn1ccnc1C1CCN(C(=O)Cc2ccc(O)c(F)c2)CC1 [CBK306649] | 82.6%
28 | Cc1nccn1CCCn1cncc1-c1ccc2c(c1)CCCN2C [CBK282962] | 93.1%
29 | Cc1cccc(-c2nnc(-c3ccc(NC(=O)CSCc4ccccc4)cc3)o2)c1 [CBK266775] | 109%
30 | Nc1cc(O)nc(SCC(=O)N2CCN(C(c3ccccc3)c3ccccc3)CC2)n1 [CBK268014] | 94%
31 | CC(=O)N1CCc2cc(-c3cc4c(C)cccn4c3)ccc21 [CBK285225] | 96%
32 | CCc1c(C(=O)NC2CCCOC2)[nH]c2ccc(F)cc12 (stereo not shown) [CBK283115] | 97.5%
33 | O=C(c1ccco1)N1C2CCC1Cn1c(nc3ccccc3c1=O)C2 (stereo not shown) [CBK284452] | 89.1%
34 | O=C1Nc2ccccc2C12CC(c1ccccc1Cl)=NN2 (stereo not shown) [CBK288004] | 111%
35 | CC(=O)Nc1cccc(-c2nccnc2N[C@H](CO)C(C)C)c1 [CBK036611] | 97%
36 | Cc1cccc(CN2CCC3(CCc4ccccc4C(=O)N3)C2)n1 (stereo not shown) [CBK284619] | 106%
37 | CCCCN(CC)S(=O)(=O)c1ccc(-n2ncc(Cl)c(Cl)c2=O)cc1 [CBK305036] | 6.38%
38 | O=C(C1CCCCC1)N1CCC(n2nc(C3CC3)ccc2=O)CC1 [CBK284240] | 90.7%
39 | O=C(O)c1ccccc1-n1c(=O)c2cc3c(=O)n(-c4ccccc4C(=O)O)c(=O)c3cc2c1=O [CBK261097] | 87.5%
40 | O=C(Nc1ccc(F)cc1)c1ccccc1NS(=O)(=O)c1cc(Br)c(Cl)s1 [CBK045405] | 92.8%
41 | CCCC(=O)Nc1ccc(OCc2ncc(C(C)(C)C)o2)c(C(C)=O)c1 [CBK305218] | 86.2%
42 | COc1cc2c(=O)n(C)c3nncn3c2cc1OC [CBK288182] | 98.1%
43 | CCOC(=O)Cn1nc(-c2nonc2N)nc1-c1nonc1N [CBK265482] | 88.5%
44 | Clc1cc(Cl)c2[nH]c3c(c2c1)CCc1nonc1-3 [CBK025929] | 102%
45 | CC1(C)NC(=O)N(CC(O)CNC23CC4CC(CC(C4)C2)C3)C1=O (stereo not shown) [CBK264823] | 95.5%
46 | COc1ccc2c(c1)C1(CC(=O)N(C)C1=O)C(=O)N2CC(=O)O (stereo not shown) [CBK076118] | 100%

Row | SMILES | viability at 28.5 h, 10 µM
47 | COc1ccc(C2CC(=O)C3=C(C2)NC(C)=C(C#N)C3c2cccc(F)c2)cc1 (stereo not shown) [CBK293922] | 91.6%
48 | S=c1[nH]nc(-c2ccc(Cl)cc2)n1-c1cccnc1 [CBK086427] | 83.6%
49 | CC(C)(O)C#Cc1ccc(C(=O)NCCC(=O)O)s1 [CBK267704] | 97.1%
50 | COC(=O)C(=O)N1CC[C@H]2NC(=O)N(Cc3ccccc3)C(=O)[C@H]21 [CBK289292] | 98.6%
51 | COc1cccc(-c2cnc(N)c(N3CCN(CCN(C)C)CC3)n2)c1 [CBK063561] | 108%
52 | CCn1c(C(C)C)nc2cc(NC(=O)Cc3c(C)noc3C)ccc21 [CBK281527] | 90.3%
53 | Cc1cccn2cc(CCNC(=O)N3CCOCC3C3CC3)nc12 (stereo not shown) [CBK304033] | 104%
54 | Cc1nnc(NCCN2CCOCC2)nc1O [CBK267912] | 98.5%
55 | Cn1c(=O)sn(-c2ccccc2)c1=O [CBK113677] | 115%
56 | COc1cccc(CSC2=C(C#N)C(c3cccs3)C(C(=O)Nc3ccccc3)=C(C)N2)c1 (stereo not shown) [CBK267458] | 83.2%
57 | CCCc1cc(C(=O)N2CCNCC2C(=O)N2CCN(C)CC2)ccn1 (stereo not shown) [CBK307619] | 97.5%
58 | Cc1nn(Cc2ccc(F)cc2)c2sc(C(=O)NCc3ccc(S(N)(=O)=O)cc3)cc12 [CBK295181] | 87%
59 | CCCC1=NNC(=O)/C1=C\c1cnc[nH]1 [CBK067767] | 105%
60 | COC(=O)C(C)(C)C1c2cc(Br)ccc2OC(=O)C1C(=O)c1ccccc1 (stereo not shown) [CBK266690] | 102%
61 | COCC1(C(=O)N2CCN(c3ccccc3C#N)CC2)CCC1 [CBK304361] | 93%
62 | O=C(Nc1ccc(F)cc1)c1c(NS(=O)(=O)c2ccc(Oc3ccccc3)cc2)sc2c1CCCC2 [CBK028653] | 96.7%
63 | NCCCN(Cc1ccco1)C1CCCC1 [CBK268856] | 109%
64 | Cc1ccc(CN(Cc2cnc(C)n2C)CC2CCCO2)o1 (stereo not shown) [CBK283291] | 100%
65 | CC(C)Oc1cccc2cccc(C(O)CN(C)C)c12 (stereo not shown) [CBK009892] | 98.5%
66 | Cc1cc(C)nc(SCC(=O)N2c3ccccc3C(C)(c3ccc(Cl)cc3)CC2(C)C)n1 (stereo not shown) [CBK073872] | 110%
67 | Cc1onc(-c2ccccc2)c1C(=O)Nc1ccccc1N1CCCNCC1 [CBK038929T] | 96.9%
68 | CN(C)C(=O)CSc1cnc2ccccc2n1 [CBK086626] | 86.3%
69 | CCCc1cc(C(=O)N2CCN(C)C3(CCNC(=O)CC3)C2)ccn1 (stereo not shown) [CBK306815] | 96.2%

Row | SMILES | viability at 28.5 h, 10 µM
70 | CC1CCc2n[nH]c(C(=O)NCCCc3ccccn3)c2C1 (stereo not shown) [CBK283194] | 105%
71 | Cc1nn(C)cc1CNC(=O)C1C2CCC(C2)C1C(=O)O (stereo not shown) [CBK286875] | 89.3%
72 | O=S(=O)(c1ccccc1)n1ccc2c(Br)cccc21 [CBK002084] | 113%
73 | CC(C)[C@@H](CO)Nc1nc(-c2ccccc2Cl)cn2ccnc12 [CBK037368] | 101%
74 | CS(=O)(=O)CCC(C(=O)O)N1C(=O)c2ccc(C(=O)O)cc2C1=O (stereo not shown) [CBK265719] | 94.5%
75 | COc1ccc(C2CC(c3cccc(Br)c3)Nc3ncnn32)cc1OC (stereo not shown) [CBK294474] | 82.7%
76 | O=C1/C(=C/c2cn(Cc3cccc4ccccc34)c3ccccc23)C(O)=NN1c1ccccc1 [CBK264849] | 94.7%
77 | CN(CC(=O)N1CCCCC1)S(=O)(=O)c1cc(Cl)ccc1Cl [CBK091826] | 78.9%
78 | O=C(NNc1ccccc1)c1c(O)c2ccccc2oc1=O [CBK260878] | 75.1%
79 | CC(C)C(=O)Nc1cccc(C(=O)Nc2nnc(C(F)(F)F)s2)c1 [CBK073453] | 107%
80 | O=S(=O)(c1ccc(-c2ccccc2)cc1)N1CCCN(Cc2cccc(F)c2F)CC1 [CBK063111] | 113%
81 | CCN(CC)CCOc1c(C)cc(Cl)cc1C [CBK262219] | 97%
82 | O=C(O)c1ccc(NS(=O)(=O)c2cc(C(=O)O)ccc2Br)cc1 [CBK113164] | 106%
83 | COc1cc(Br)c(/C=C(/C#N)C(=O)Nc2ccc(O)cc2)cc1OC [CBK262733] | 79.9%
84 | COc1cc(-c2nccnc2NCc2ccc(OC(F)(F)F)cc2)cc(OC)c1OC [CBK038063] | 117%
85 | Cc1nc(C)n(CC2CCCN(Cc3ccc(C#N)cc3)C2)n1 (stereo not shown) [CBK305082] | 83.1%
86 | O=c1c2cc(Cl)ccc2sc2ncccc12 [CBK008118] | 97.4%
87 | COC(=O)c1ccccc1NC(=O)CNS(=O)(=O)c1c(C)cc(C)cc1C [CBK265974] | 104%
88 | CS(=O)(=O)Nc1ccc(CNC(=O)c2ccc3[nH]ccc3c2)cc1 [CBK161747] | 93.5%
89 | c1ccc(SCc2csc(-c3ccc4c(c3)OCO4)n2)nc1 [CBK270294] | 87.7%
90 | CCCc1c(Cc2c(Cl)cccc2Cl)c(=O)n(C)n1C [CBK115466] | 93%
91 | Cc1ccccc1CNC(=O)CCc1c(C)nc2nc(N)nn2c1C [CBK304987] | 108%
